Source: ChEMBL document CHEMBL1201862, “PubChem BioAssay data set” (2004)
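These data come from cells grown in 96-well plates and exposed to compound for 48 hours at five concentrations. GI50: concentration for 50% inhibition of growth.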 The source made the active and inactive calls. Cut-off read from the data, not from the text of the source: active = GI50 up to about 1.1 µM and inactive = higher.

Assays:
Assay in all cases: inhibition of tumour cell growth, NCI panel, 48 h
786-0 = test system: 786-0
A498 = test system: A498
A549 = test system: A549
ACHN = test system: ACHN
CAKI-1 = test system: CAKI-1
CCRF-CEM = test system: CCRF-CEM
COLO 205 = test system: COLO 205
DLD-1 = test system: DLD-1
DMS-114 = test system: DMS-114
DMS-273 = test system: DMS-273
EKVX = test system: EKVX
HCC 2998 = test system: HCC 2998
HCT-116 = test system: HCT-116
HCT-15 = test system: HCT-15
HL-60 = test system: HL-60
HOP-18 = test system: HOP-18
HOP-62 = test system: HOP-62
HOP-92 = test system: HOP-92
HT-29 = test system: HT-29
IGROV-1 = test system: IGROV-1
K562 = test system: K562
KM-20L2 = test system: KM-20L2
KM12 = test system: KM12
LOX IMVI = test system: LOX IMVI
LXFL 529 = test system: LXFL 529
M14 = test system: M14
M19-MEL = test system: M19-MEL
MOLT-4 = test system: MOLT-4
Malme-3M = test system: Malme-3M
NCI-H226 = test system: NCI-H226
NCI-H23 = test system: NCI-H23
NCI-H460 = test system: NCI-H460
NCI-H522 = test system: NCI-H522
OVCAR-3 = test system: OVCAR-3
OVCAR-4 = test system: OVCAR-4
OVCAR-5 = test system: OVCAR-5
OVCAR-8 = test system: OVCAR-8
RPMI-8226 = test system: RPMI-8226
RXF 393 = test system: RXF 393
RXF 631 = test system: RXF 631
SF-268 = test system: SF-268
SF-295 = test system: SF-295
SF-539 = test system: SF-539
SK-MEL-28 = test system: SK-MEL-28
SK-MEL-2 = test system: SK-MEL-2
SK-MEL-5 = test system: SK-MEL-5
SK-OV-3 = test system: SK-OV-3
SN12C = test system: SN12C
SNB-19 = test system: SNB-19
SNB-75 = test system: SNB-75
SNB-78 = test system: SNB-78
SR = test system: SR
SW-620 = test system: SW-620
TK-10 = test system: TK-10
U-251 = test system: U-251
UACC-257 = test system: UACC-257
UACC-62 = test system: UACC-62
UO-31 = test system: UO-31
XF498 = test system: XF498

Measured: GI50

C[C@@]1(O)CC[C@]2(C)C3CCCC3[C@H]12 (stereo not given in full)
inactive: 786-0 > 100 µM | A498 > 100 µM | A549 > 100 µM | ACHN > 100 µM | CAKI-1 > 100 µM | CCRF-CEM > 100 µM | COLO 205 > 100 µM | DLD-1 > 100 µM | DMS-114 > 100 µM | DMS-273 > 100 µM | EKVX > 100 µM | HCC 2998 > 100 µM | HCT-116 > 100 µM | HL-60 > 100 µM | HOP-18 > 100 µM | HOP-62 > 100 µM | HOP-92 > 100 µM | HT-29 > 100 µM | IGROV-1 > 100 µM | K562 > 100 µM | KM-20L2 > 100 µM | KM12 > 100 µM | LOX IMVI > 100 µM | LXFL 529 > 100 µM | M14 > 100 µM | M19-MEL > 100 µM | MOLT-4 > 100 µM | Malme-3M > 100 µM | NCI-H226 > 100 µM | NCI-H23 > 100 µM | NCI-H460 > 100 µM | NCI-H522 > 100 µM | OVCAR-3 > 100 µM | OVCAR-4 > 100 µM | OVCAR-5 > 100 µM | OVCAR-8 > 100 µM | RPMI-8226 > 100 µM | RXF 393 > 100 µM | RXF 631 > 100 µM | SF-268 > 100 µM | SF-295 > 100 µM | SF-539 > 100 µM | SK-MEL-28 > 100 µM | SK-MEL-2 > 100 µM | SK-MEL-5 > 100 µM | SK-OV-3 > 100 µM | SN12C > 100 µM | SNB-19 > 100 µM | SNB-75 > 100 µM | SNB-78 > 100 µM | SR > 100 µM | SW-620 > 100 µM | TK-10 > 100 µM | U-251 > 100 µM | UACC-257 > 100 µM | UACC-62 > 100 µM | UO-31 > 100 µM
> 100 µM: HCT-15

COC(=O)c1nc(N)nc(O)c1-c1ccc(Cl)cc1
inactive: 786-0 > 100 µM | A498 > 100 µM | A549 > 100 µM | ACHN > 100 µM | CAKI-1 > 100 µM | CCRF-CEM > 100 µM | COLO 205 > 100 µM | DLD-1 > 100 µM | DMS-114 > 100 µM | DMS-273 > 100 µM | EKVX > 100 µM | HCC 2998 > 100 µM | HCT-116 > 100 µM | HL-60 > 100 µM | HOP-62 > 100 µM | HOP-92 > 100 µM | HT-29 > 100 µM | IGROV-1 > 100 µM | K562 > 100 µM | KM-20L2 > 100 µM | KM12 > 100 µM | LOX IMVI > 100 µM | LXFL 529 > 100 µM | M14 > 100 µM | M19-MEL > 100 µM | MOLT-4 > 100 µM | Malme-3M > 100 µM | NCI-H226 > 100 µM | NCI-H23 > 100 µM | NCI-H460 > 100 µM | NCI-H522 > 100 µM | OVCAR-3 > 100 µM | OVCAR-4 > 100 µM | OVCAR-5 > 100 µM | OVCAR-8 > 100 µM | RPMI-8226 > 100 µM | RXF 393 > 100 µM | RXF 631 > 100 µM | SF-268 > 100 µM | SF-295 > 100 µM | SF-539 > 100 µM | SK-MEL-28 > 100 µM | SK-MEL-2 > 100 µM | SK-MEL-5 > 100 µM | SK-OV-3 > 100 µM | SN12C > 100 µM | SNB-19 > 100 µM | SNB-75 > 100 µM | SNB-78 > 100 µM | SR > 70 µM | SW-620 > 100 µM | TK-10 > 100 µM | U-251 > 100 µM | UACC-257 > 100 µM | UACC-62 > 100 µM | UO-31 > 100 µM | XF498 > 100 µM
> 100 µM: HCT-15

CCC(/C(=N/NC(=O)C[N+](C)(C)C)c1ccccc1)C1OC(=O)c2ccccc21 (stereo not given)
> 100 µM: HCT-15
inactive: 786-0 > 100 µM | A549 > 100 µM | ACHN > 100 µM | CAKI-1 > 100 µM | CCRF-CEM > 100 µM | COLO 205 > 100 µM | DMS-114 > 100 µM | DMS-273 > 100 µM | HCC 2998 > 100 µM | HCT-116 > 100 µM | HL-60 > 100 µM | HOP-62 > 100 µM | HOP-92 > 100 µM | HT-29 > 100 µM | IGROV-1 > 100 µM | K562 > 100 µM | KM-20L2 > 100 µM | KM12 > 100 µM | LOX IMVI > 100 µM | LXFL 529 > 100 µM | M14 > 100 µM | M19-MEL > 100 µM | MOLT-4 > 100 µM | Malme-3M > 100 µM | NCI-H226 > 100 µM | NCI-H23 > 100 µM | NCI-H460 > 100 µM | NCI-H522 > 100 µM | OVCAR-3 > 100 µM | OVCAR-4 > 100 µM | OVCAR-5 > 100 µM | OVCAR-8 > 100 µM | RPMI-8226 > 100 µM | RXF 393 > 100 µM | RXF 631 > 100 µM | SF-268 > 100 µM | SF-295 > 100 µM | SF-539 > 100 µM | SK-MEL-28 > 100 µM | SK-MEL-5 > 100 µM | SK-OV-3 > 100 µM | SN12C > 100 µM | SNB-19 > 100 µM | SNB-75 > 100 µM | SNB-78 > 100 µM | SR > 100 µM | SW-620 > 100 µM | TK-10 > 100 µM | U-251 > 100 µM | UACC-257 > 100 µM | UACC-62 > 100 µM | UO-31 > 100 µM | XF498 > 100 µM
